Experimental data published in patent US10988474B2, “Compounds acting at multiple prostaglandin receptors giving a general anti-inflammatory response” (ALLERGAN, INC., priority 2011, dated 2021).

Legend:
Format in all cases: cell-based
[1] = target: T1, human prostanoid EP1 receptor (Homo sapiens, UniProt P34995); assay: FLIPR Ca2+ signaling PG antagonist assay, EP1 stable cell line; conditions: HEK-293 EBNA cells, human recombinant EP1, no exogenous G-protein; standard agonist PGE2
T1 construct: expressed in transfected cells
T1 sequence (P34995 1-402): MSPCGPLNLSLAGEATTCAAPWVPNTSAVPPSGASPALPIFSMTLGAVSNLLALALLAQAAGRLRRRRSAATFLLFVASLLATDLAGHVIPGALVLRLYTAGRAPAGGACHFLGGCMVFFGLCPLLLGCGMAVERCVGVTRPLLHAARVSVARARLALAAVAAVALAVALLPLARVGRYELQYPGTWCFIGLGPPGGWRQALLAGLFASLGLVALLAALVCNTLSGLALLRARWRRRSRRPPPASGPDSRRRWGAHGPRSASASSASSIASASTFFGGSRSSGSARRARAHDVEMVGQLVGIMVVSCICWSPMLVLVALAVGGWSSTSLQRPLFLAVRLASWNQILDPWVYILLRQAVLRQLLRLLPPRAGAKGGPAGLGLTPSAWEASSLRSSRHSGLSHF
Method: (§1) The above compounds were tested for PG antagonist activity as follows using human recombinant prostanoid receptor (DP1, EP1-4, FP, IP and TP) stable cell lines: In order to measure the response of Gs and Gi coupled prostanoid receptors as a Ca^2+ signal, chimeric G protein cDNAs were used. Stable cell lines over-expressing human prostanoid DP1, EP1-4, FP, IP, and TP receptors were established as follows:
(§2) Briefly, human prostanoid DP1, EP2, and EP4 receptor cDNAs were co-transfected with chimeric Gqs cDNA containing a haemagglutanin (HA) epitope; human prostanoid EP3 receptors were co-transfected with chimeric Gqi-HA; human EP1, FP, IP, and TP receptor cDNAs were expressed with no exogenous G-proteins. Gqs and Gqi chimeric cDNAs (Molecular Devices, Sunnyvale, Calif., U.S.A.), as well as cDNAs of prostanoid receptors, were cloned into a pCEP4 vector with a hygromycin B selection marker. Transfection into HEK-293 EBNA (Epstein-Barr virus nuclear antigen) cells was achieved by the FuGENE 6 transfection Reagent (Roche Applied Science, Indianapolis, Ind., USA). Stable transfectants were selected according to hygromycin resistance. Because Gqs and Gqi contained an HA epitope, G-protein expression was detected by Western blotting analysis using anti-mouse HA monoclonal antibody and horseradish peroxidase (HRP)-conjugated secondary antibody, while functional expression of prostanoid receptors was detected by FLIPR screening (Matias et al., 2004). These stable cell lines were validated using previously published antagonists at 10 μM against serial dilutions of standard agonists by FLIPR functional assays for Ca^2+ Signaling (as described below).
(§3) Ca^2+ signaling studies were performed using a FLIPR TETRA system (Molecular Devices, Sunnyvale, Calif., USA) in the 384-format. This is a high-throughput instrument for cell-based assays to monitor Ca^2+ signaling associated with GPCRs and ion channels. Cells were seeded at a density of 5×10^4 cells/well in BioCoat poly-D-lysine coated, black wall, clear bottom 384-well plates (BD Biosciences, Franklin lakes, NJ, USA) and allowed to attach overnight in an incubator at 37° C. The cells were then washed twice with HBSS-HEPES buffer (Hanks' balanced salt solution without bicarbonate and phenol red, 20 mM HEPES, pH 7.4) using an ELx405 Select CW Microplate Washer (BioTek, Winooski, Vt., USA). After 60 min of dye-loading in the dark using the Ca^2+-sensitive dye Fluo-4AM (Invitrogen, Carlsbad, Calif., USA), at a final concentration of 2×10^−6M, the plates were washed 4 times with HBSS-HEPES buffer to remove excess dye and leaving 50 μl of buffer in each well. The plates were then placed in the FLIPR TETRA instrument and allowed to equilibrate at 37° C. Compounds were added in a 25 μl volume to each well to give final concentrations of 0.1 μM, 0.3 μM, 1 μM, 3 μM, 10 μM, and 30 μM; or 0.067 μM, 0.1 μM, 0.2 μM, 0.3 μM, 0.67 μM, and 1 μM for cells over-expressing TP receptors. After 4.5 minutes, a 7-point serial dilution of the standard agonist for the corresponding receptor, in a 25 μl volume was injected at the final concentrations from 10^−11M to 10^−5M in 10-fold serial dilution increments for cells expressing human recombinant DP1, EP1, EP2, EP3, EP4, FP, and IP receptors. The dose range for the standard agonist for human recombinant TP receptors was from 10^−12M to 10^−6M. HBSS-HEPES buffer was used as the negative control for the standard agonists. Cells were excited with LED (light emitting diode) excitation at 470-495 nm and emission was measured through an emission filter at 515-575 nm. Assay plates were read for 3.5 minutes using the FLIPR^TETRA. The peak increase in fluorescence intensity was recorded for each well. On each plate, negative controls, dose response of positive controls, and co-treatments of antagonist-agonist for each dose were in triplicates. Standard agonists were as follows: DP=BW 245C, EP1-EP4=PGE2, FP=17-phenyl-PGF2α, IP=Cicaprost, and TP=U-46619. […]

[2] = target: T2, human prostanoid FP receptor (Homo sapiens, UniProt P43088); assay: FLIPR Ca2+ signaling PG antagonist assay, FP stable cell line; conditions: HEK-293 EBNA cells, human recombinant FP, no exogenous G-protein; standard agonist 17-phenyl-PGF2α
T2 construct: expressed in transfected cells
T2 sequence (P43088 whole entry): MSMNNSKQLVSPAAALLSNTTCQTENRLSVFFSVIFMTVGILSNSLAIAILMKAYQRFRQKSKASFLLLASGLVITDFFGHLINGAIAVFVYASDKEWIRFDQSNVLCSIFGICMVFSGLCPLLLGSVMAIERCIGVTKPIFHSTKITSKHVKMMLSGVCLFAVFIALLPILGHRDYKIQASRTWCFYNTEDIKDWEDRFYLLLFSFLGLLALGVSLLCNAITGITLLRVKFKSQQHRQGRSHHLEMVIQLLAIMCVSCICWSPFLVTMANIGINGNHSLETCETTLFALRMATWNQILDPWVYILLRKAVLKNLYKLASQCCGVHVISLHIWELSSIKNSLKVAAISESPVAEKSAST
Method: as §1, §2, §3

[3] = target: T3, human prostanoid DP1 receptor (Homo sapiens, UniProt Q13258); assay: FLIPR Ca2+ signaling PG antagonist assay, DP1 stable cell line; conditions: HEK-293 EBNA cells, human recombinant DP1 with chimeric Gqs, standard agonist BW 245C; for Kb: read-out: DP (Kb, PG antagonist activity)
T3 construct: expressed in transfected cells
T3 sequence (Q13258 1-359): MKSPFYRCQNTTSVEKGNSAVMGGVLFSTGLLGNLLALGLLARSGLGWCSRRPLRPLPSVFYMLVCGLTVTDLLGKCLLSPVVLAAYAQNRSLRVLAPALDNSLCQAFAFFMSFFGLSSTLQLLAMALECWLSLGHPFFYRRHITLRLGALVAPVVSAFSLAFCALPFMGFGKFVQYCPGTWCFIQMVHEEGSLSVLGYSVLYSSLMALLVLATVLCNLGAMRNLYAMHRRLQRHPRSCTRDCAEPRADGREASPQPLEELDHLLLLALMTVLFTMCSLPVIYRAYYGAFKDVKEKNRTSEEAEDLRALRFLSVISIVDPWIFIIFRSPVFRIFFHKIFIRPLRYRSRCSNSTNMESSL
Method: as §1, §2, §3

Compound	Kb [1] [µM]	Kb [2] [µM]	Kb [3] [µM]	DP (Kb, PG antagonist activity) [3]
CCC(CC)COc1ccc(Br)cc1Cn1nc(C)c2cc(C(=O)O)ccc21 [Example 27, 1-[5-Bromo-2-(2-Ethyl-Butoxy)-Benzyl]-3-Methyl-1H-Indazole-5-Carboxylic Acid]	0.11	0.2	1.6	
Cc1nn(Cc2cc(Br)ccc2OCC2(C)CC2)c2ccc(C(=O)O)cc12 [Example 28, 1-[5-Bromo-2-(1-Methyl-Cyclopropylmethoxy)-Benzyl]-3-Methyl-1H-Indazole-5-Carboxylic Acid]	0.043	0.07	0.73	
O=C(O)c1ccc2c(cnn2Cc2cc(C(F)(F)F)ccc2OCc2ccc(Cl)cc2)c1 [Example 32, 1-[2-(4-Chloro-Benzyloxy)-5-Trifluoromethyl-Benzyl]-1H-Indazole-5-Carboxylic Acid]	0.21	0.05	1.7	
O=C(O)c1ccc2c(cnn2Cc2cc(C(F)(F)F)ccc2OCC2CCCC2)c1 [Example 33, 1-(2-Cyclopentylmethoxy-5-Trifluoromethyl-Benzyl)-1H-Indazole-5-Carboxylic Acid]	0.07	0.07	0.35	
O=C(O)c1cccc2c1cnn2Cc1cc(Cl)ccc1OCC1CC1 [Example 34, 1-(5-Chloro-2-Cyclopropylmethoxy-Benzyl)-1H-Indazole-4-Carboxylic Acid]	0.07	3.2	5.4	
O=C(O)c1cccc2nn(Cc3cc(Cl)ccc3OCC3CC3)cc12 [Example 35, 2-(5-Chloro-2-Cyclopropylmethoxy-Benzyl)-2H-Indazole-4-Carboxylic Acid]	4.2	4.3	1.9	
CC(C)COc1ccc(Cl)cc1Cn1ncc2c(C(=O)O)cccc21 [Example 36, 1-(5-Chloro-2-Isobutoxy-Benzyl)-1H-Indazole-4-Carboxylic Acid]	0.06	0.58	1.1	
CC(C)COc1ccc(Cl)cc1Cn1cc2c(C(=O)O)cccc2n1 [Example 37, 2-(5-Chloro-2-Isobutoxy-Benzyl)-2H-Indazole-4-Carboxylic Acid]	0.48	≥ 10	1.3	
CCC(CC)COc1ccc(Cl)cc1Cn1ncc2c(C(=O)O)cccc21 [Example 38, 1-[5-Chloro-2-(2-Ethyl-Butoxy)-Benzyl]-1H-Indazole-4-Carboxylic Acid]	0.07	1.1	0.63	
CCC(CC)COc1ccc(Cl)cc1Cn1cc2c(C(=O)O)cccc2n1 [Example 39, 2-[5-Chloro-2-(2-Ethyl-Butoxy)-Benzyl]-2H-Indazole-4-Carboxylic Acid]	1.2	≥ 10	1	
O=C(O)c1cccc2c1cnn2Cc1cc(Cl)ccc1OCc1ccc(Cl)cc1 [Example 40, 1-[5-Chloro-2-(4-Chloro-Benzyloxy)-Benzyl]-1H-Indazole-4-Carboxylic Acid]	0.06	0.27	1	
O=C(O)c1cccc2nn(Cc3cc(Cl)ccc3OCc3ccc(Cl)cc3)cc12 [Example 41, 2-[5-Chloro-2-(4-Chloro-Benzyloxy)-Benzyl]-2H-Indazole-4-Carboxylic Acid]	≥ 10	≥ 10	4.7	
CC(C)COc1ccc(Br)cc1Cn1ncc2ccc(C(=O)O)cc21 [Example 42, 1-(5-Bromo-2-Isobutoxy-Benzyl)-1H-Indazole-6-Carboxylic Acid]	0.024	0.9	0.16	
O=C(O)c1ccc2cnn(Cc3cc(Br)ccc3OCC3CCCC3)c2c1 [Example 44, 1-(5-Bromo-2-Cyclopentylmethoxy-Benzyl)-1H-Indazole-6-Carboxylic Acid]	0.24	1.4		PAg
O=C(O)c1ccc2cn(Cc3cc(Br)ccc3OCC3CCCC3)nc2c1 [Example 45, 2-(5-Bromo-2-Cyclopentylmethoxy-Benzyl)-2H-Indazole-6-Carboxylic Acid]	0.023	1.4	2.8	
CCC(CC)COc1ccc(Cl)cc1Cn1ncc2ccc(C(=O)O)cc21 [Example 46, 1-[5-Chloro-2-(2-Ethyl-Butoxy)-Benzyl]-1H-Indazole-6-Carboxylic Acid]	7.1	≥ 10	2.5	
CC(C)COc1c(F)cc(Cl)cc1Cn1ncc2cc(C(=O)O)ccc21 [Example 47, 1-(5-Chloro-3-Fluoro-2-Isobutoxy-Benzyl)-1H-Indazole-5-Carboxylic Acid]	2	4.7	0.7	
CC(C)COc1ccc(S(C)(=O)=O)cc1Cn1ncc2cc(C(=O)O)ccc21 [Example 48, 1-(2-Isobutoxy-5-Methanesulfonyl-Benzyl)-1H-Indazole-5-Carboxylic Acid]	0.26	≥ 10	≥ 10	
CC(C)COc1cc(Cl)c(Cl)cc1Cn1ncc2cc(C(=O)O)ccc21 [Example 49, 1-(4,5-Dichloro-2-Isobutoxy-Benzyl)-1H-Indazole-5-Carboxylic Acid]	0.54	0.07	3.5	
Cc1ccc(OCC(C)C)c(Cn2ncc3cc(C(=O)O)ccc32)n1 [Example 50, 1-(3-Isobutoxy-6-Methyl-Pyridin-2-ylmethyl)-1H-Indazole-5-Carboxylic Acid]	0.09	4.9	2.4	
CCC(CC)Oc1ccc(Br)cc1Cn1ncc2cc(C(=O)O)ccc21 [Example 51, 1-[5-Bromo-2-(1-Ethyl-Propoxy)-Benzyl]-1H-Indazole-5-Carboxylic Acid]	0.07	0.11	0.6	
CC(C)(C)COc1ccc(Br)cc1Cn1ncc2cc(C(=O)O)ccc21 [Example 52, 1-[5-Bromo-2-(2,2-Dimethyl-Propoxy)-Benzyl]-1H-Indazole-5-Carboxylic Acid]	0.024	0.011	2.3	
